{"source": "patent US12186320B2", "about": "“Therapeutic agent containing pyrazolo[3,4-d]pyrimidine compound as active ingredient” (TAIHO PHARMACEUTICAL CO., LTD., priority 2018, dated 2025)", "key": {"[1]": {"system": "Champions Tumor Graft models CTG-1171", "conditions": "cited from earlier work"}, "[2]": {"system": "Human stomach cancer cell line, NCI-N87", "assay": "Antitumor evaluation in model with tumor recurrence following administration of trastuzumab emtansine (NCI-N87 subcutaneous xenograft)", "format": "in vivo, nude mice (BALB/cAJcl-nu/nu)", "conditions": "for TV (mm^3) on Day43 Mean ± SD: Step 2, Day 43, Compound 1 60 mg/kg/day p.o. Days 1-42, trastuzumab emtansine 10 mg/kg/day i.v. Days 1, 22, n=9", "method": "Human stomach cancer cell line, NCI-N87, was obtained from American Type Culture Collection (ATCC). The cell line was cultured in a RPMI-1640 medium (containing 4.5 g/L glucose, 10 mM HEPES and 1 mM sodium pyruvate) (Wako Pure Chemical Corporation) containing 10% fetal bovine serum (FBS) at 37° C. in a 5% CO2 incubator.\nThe NCI-N87 cells were resuspended in PBS to a concentration of 10^8 cells/mL. A 1-mL tuberculin syringe with a 25G needle was used to subcutaneously transplant […] cells/0.1 mL each of the cell suspension into the right chests of 6-week-old nude mice (BALB/cAJcl-nu/nu, CLEA Japan, Inc.).\nThe tumor diameter was measured with a digital caliper by holding the long diameter and the short diameter of the tumor between the measuring surfaces of the digital caliper for each mouse. Measurements took place at a frequency of once in 2-5 days including the day of group sorting and the day of judgement. The tumor volume (TV) was calculated based on these long and short diameters. The relative tumor volume (RTV) and the rate of change in the relative tumor volume (T/C) were calculated from the calculated tumor volume. TV, RTV and T/C were calculated according to the following equations. Tumor volume TV(mm^3)=(Long diameter, mm)×(Short diameter, mm)×(Short diameter, mm)/2 Relative tumor volume RTV=(TV on day of measurement)/(TV on day of dividing into groups) Rate of change in relative tumor volume T/C (%)=(Mean RTV of treated group)/(Mean RTV of control group)×100\nThe tumor diameters and weights were measured with time to calculate TV and BWC.\nEighteen nude mice confirmed with tumor recurrence in Step 1 were selected, and 9 animals were assigned to each group by equal distribution (MiSTAT (ver.2.0)) as follows such that the mean TV of each group was uniform (Day 1, i.e., Day 85 as counted from Step 1). Compound 1 was prepared to 6 mg/mL with a 0.1N HCl solution, and the resultant was orally administered once a day on Days 1-42 consecutively. […] The tumor diameters and weights were measured with time to calculate TV and BWC."}, "[3]": {"system": "Champions Tumor Graft models CTG-1171", "assay": "Anti-tumor effect using cancer patient-derived cells (CTG-1171 PDX, Test Example 2)", "format": "in vivo, nude mice (Athymic Nude-Foxn1nu)", "method": "Champions Tumor Graft models CTG-1171 (Champions Oncology, Inc.) having the profiles shown in Tables 5-8 were transplanted into Stock mice (Athymic Nude-Foxn1^nu, Envigo). Once the tumor volume of the transplanted tumor reached 1,000-1,500 mm^3, the tumor was taken out and a fragment thereof of about 65 mm^3 was subcutaneously transplanted into the left side of 7-week-old nude mice (Athymic Nude-Foxn1^nu, Envigo). Tumor diameters were measured twice a week with a digital caliper. TV was calculated according to the following equation. TV (mm^3)=Width (mm)^2×Length (mm)×0.52\nTen individuals whose tumor volumes reached 150-300 mm^3 were assigned to each group (Day 0).\n(§1) Compound 1 was prepared to have a predetermined concentration with a 0.1N HCl solution, and the resultant was orally administered once a day on Days 0-27 consecutively. Tumor diameters were measured twice a week with a digital caliper. The rate of change in the weight of the mouse was calculated in the same manner as Test example 1 above. Mice observed with weight loss by 10% or more as compared to Day 0 were given DietGel (registered trademark).\nThe anti-tumor effect of the drug was evaluated according to tumor growth inhibition (TGI), which was calculated by the following equation. TGI=(100%×[1−(TV of treated group on Day 27−TV of treated group on Day 0)/(TV of control group on Day 27−TV of control group on Day 0)])"}, "[4]": {"assay": "Body weight change / toxicity judgement in CTG-1171 PDX model (Test Example 2)", "format": "in vivo", "conditions": "60 mg/kg/day p.o. Days 0-27", "method": "as §1\nIn addition, the presence of toxicity was judged as follows: a dose observed with a weight loss of 20% or more or a mortality rate of 10% or more was judged to have exceeded the MTD (maximum tolerated dose) and thus toxicity was present."}, "[5]": {"system": "Breast cancer (primary), HER2 +", "conditions": "single patient; neighbouring lines without a result appear to be partners of the same regimen; cited from earlier work"}, "[6]": {"conditions": "value on first line of a two-line group (apparent combination): Capecitabine 5 with Lapatinib 1 mg/kg/day, once a day for 21 days p.o., Gemcitabine with Nab-paclitaxel, dose not given"}}, "note": "Read-outs that look alike come from different tables or passages of the source.", "data": [{"molecule": "CCCCCOC(=O)Nc1nc(=O)n([C@@H]2O[C@H](C)[C@@H](O)[C@H]2O)cc1F", "note": "[Capecitabine]", "values": [{"measurement": "TGI (%)", "setting": "[1]; [6]", "value": 96, "unit": "%"}]}, {"molecule": "C=CC(=O)N1CCC[C@@H](n2nc(C(=O)Nc3ccc(CC(=O)N(C)C)c(C)c3C)c3c(N)ncnc32)C1", "note": "[Compound 1, (R)-1-(1-acryloylpiperidine-3-yl)-4-amino-N-(4-(2-(dimethylamino)-2-oxoethyl)-2,3-dimethylphenyl)-1H-pyrazolo[3,4-d]pyrimidine-3-carboxamide]", "values": [{"measurement": "TV versus trastuzumab emtansine-administered group on day of judgement (Day 43)", "setting": "[2]; Aspin-Welch's t-test, Compound 1 60 mg/kg/day p.o.", "value": "significantly lower"}, {"measurement": "T/C (%)", "setting": "[2]; Day 43, mean TV of Compound 1 group / mean TV of trastuzumab emtansine group × 100, 60 mg/kg/day p.o. Days 1-42", "value": 25.4, "unit": "%"}, {"measurement": "TV (mm^3) on Day43 Mean ± SD", "setting": "[2]", "value": "107.29 ± 37.76", "unit": "mm^3"}, {"measurement": "TV versus control-administered group on Day 27", "setting": "[3]; 60 mg/kg/day p.o. Days 0-27", "value": "significantly lower"}, {"measurement": "TV (mm^3) on Day0 Mean ± SD", "setting": "[3]; Day 0 (group assignment, baseline), n=10", "value": "196 ± 22", "unit": "mm^3"}, {"measurement": "TV (mm^3) on Day27 Mean ± SD", "setting": "[3]; Day 27, 60 mg/kg/day p.o. Days 0-27, n=10", "value": "162 ± 27", "unit": "mm^3"}, {"measurement": "TGI (%)", "setting": "[3]; Day 27 versus Day 0, versus control, 60 mg/kg/day p.o. Days 0-27", "value": 112, "unit": "%"}, {"measurement": "decrease of average rate of change in the weight during the administration period", "setting": "[4]", "value": "< 5", "unit": "%"}, {"measurement": "judgement of the dose (tolerability)", "setting": "[4]", "value": "tolerable"}, {"measurement": "BWG(%) on Day27 Mean", "setting": "[4]; Day 27", "value": "−0.60", "unit": "%"}]}, {"molecule": "CC(=O)O[C@@]12CO[C@@H]1C[C@H](O)[C@@]1(C)C(=O)[C@H](O)C3=C(C)[C@@H](OC(=O)[C@H](O)[C@@H](NC(=O)OC(C)(C)C)c4ccccc4)C[C@@](O)([C@@H](OC(=O)c4ccccc4)[C@H]21)C3(C)C", "note": "[Docetaxel]", "values": [{"measurement": "Result (treatment history before acquiring tumor tissue)", "setting": "[5]", "value": "Responded"}]}, {"molecule": "C=C1C[C@@H]2CC[C@@]34C[C@H]5O[C@H]6[C@@H](O3)[C@H]3O[C@H](CC[C@@H]3O[C@H]6[C@H]5O4)CC(=O)C[C@@H]3[C@@H](OC)[C@@H](C[C@H](O)CN)O[C@H]3C[C@H]3O[C@@H](CC[C@@H]1O2)C[C@@H](C)C3=C", "note": "[Eribulin]", "values": [{"measurement": "Result (treatment history after acquiring tumor tissue)", "setting": "[5]", "value": "No response"}]}, {"molecule": "Nc1ccn([C@@H]2O[C@H](CO)[C@@H](O)C2(F)F)c(=O)n1", "note": "[Gemcitabine]", "values": [{"measurement": "TGI (%)", "setting": "[1]; [6]", "value": 28, "unit": "%"}]}, {"molecule": "CS(=O)(=O)CCNCc1ccc(-c2ccc3ncnc(Nc4ccc(OCc5cccc(F)c5)c(Cl)c4)c3c2)o1", "note": "[Lapatinib]", "values": [{"measurement": "Result (treatment history after acquiring tumor tissue)", "setting": "[5]", "value": "No response"}]}, {"molecule": "CO[C@H]1C[C@@H]2CC[C@@H](C)[C@@](O)(O2)C(=O)C(=O)N2CCCC[C@H]2C(=O)O[C@H]([C@H](C)C[C@@H]2CC[C@@H](OC(=O)C(C)(CO)CO)[C@H](OC)C2)CC(=O)[C@H](C)/C=C(\\C)[C@@H](O)[C@@H](OC)C(=O)[C@H](C)C[C@H](C)/C=C/C=C/C=C/1C", "note": "[Temsirolimus]", "values": [{"measurement": "TGI (%)", "setting": "[1]; single agents, Nab-paclitaxel 0.5 mg/kg/day once a week for 3 weeks i.v., Temsirolimus 0.5 once a week for 5 weeks i.p., Trastuzumab 15 once a week for 8 weeks i.v., Afatinib dose not given", "value": 59, "unit": "%"}]}, {"molecule": "Bevacizumab", "values": [{"measurement": "Result (treatment history before acquiring tumor tissue)", "setting": "[5]", "value": "No response"}]}, {"molecule": "Trastuzumab emtansine", "values": [{"measurement": "tumor course after administration of trastuzumab emtansine (FIG. 1)", "setting": "[2]; Step 1, 10 mg/kg/day i.v. on Days 1, 22, 43, 64, n=36", "value": "tumor shrinkage was confirmed for once by administration of trastuzumab emtansine but tumor recurrence was confirmed on Day 85"}, {"measurement": "TV (mm^3) on Day43 Mean ± SD", "setting": "[2]", "value": "421.92 ± 143.78", "unit": "mm^3"}, {"measurement": "Result (treatment history after acquiring tumor tissue)", "setting": "[5]", "value": "No response"}, {"measurement": "Result (treatment history before acquiring tumor tissue)", "setting": "[5]", "value": "No response"}]}]}
